Read-outs that look alike come from different tables or passages of the source.
What was measured:
[1] = target: T1, Transporter, Dopamine (DAT) (Homo sapiens, UniProt Q01959); assay: Radioligand binding, Transporter, Dopamine (DAT) (Eurofin Discovery 220320); settings: for DAT, %inhibition 10 nM: 10 nM compound; for DAT, %inhibition 100 nM / inhibition at 0.1 µM: 100 nM compound
T1 construct: host or cells: CHO-S cells

[2] = target: T2, Transporter, Norepinephrine (NET) (Homo sapiens, UniProt P23975); assay: Radioligand binding, Transporter, Norepinephrine (NET) (Eurofin Discovery 204410)
T2 construct: host or cells: MDCK cells
T2 sequence (P23975 whole entry): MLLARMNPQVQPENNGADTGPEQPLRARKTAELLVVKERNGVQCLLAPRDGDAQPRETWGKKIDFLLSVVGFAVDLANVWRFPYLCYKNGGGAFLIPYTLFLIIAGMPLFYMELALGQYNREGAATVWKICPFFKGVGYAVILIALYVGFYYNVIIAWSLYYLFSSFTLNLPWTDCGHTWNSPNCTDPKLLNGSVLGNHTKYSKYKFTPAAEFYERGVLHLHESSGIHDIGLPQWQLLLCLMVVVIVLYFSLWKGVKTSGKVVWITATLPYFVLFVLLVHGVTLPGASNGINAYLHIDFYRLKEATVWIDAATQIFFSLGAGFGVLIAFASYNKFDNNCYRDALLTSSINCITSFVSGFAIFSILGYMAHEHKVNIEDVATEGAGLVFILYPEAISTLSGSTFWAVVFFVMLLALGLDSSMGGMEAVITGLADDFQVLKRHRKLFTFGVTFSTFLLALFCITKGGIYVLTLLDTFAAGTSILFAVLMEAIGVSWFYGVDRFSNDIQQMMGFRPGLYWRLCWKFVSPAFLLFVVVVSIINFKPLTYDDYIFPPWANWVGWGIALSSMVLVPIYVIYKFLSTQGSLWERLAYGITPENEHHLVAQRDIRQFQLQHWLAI

MCHR1 [3] = target: T3, MCHR1 (Homo sapiens, UniProt Q99705); assay: MCHR1 pharmacology of the N-acetyl metabolite
Text: By substituting the hydrogens with deuterium on the carbon(s) adjacent to the nitrogen which is acetylated (see for example, Examples 5 to 7), acetylation process can be slowed down to reduce the formation of this metabolite.
Target sequence in this assay (Q99705 whole entry, species assumed): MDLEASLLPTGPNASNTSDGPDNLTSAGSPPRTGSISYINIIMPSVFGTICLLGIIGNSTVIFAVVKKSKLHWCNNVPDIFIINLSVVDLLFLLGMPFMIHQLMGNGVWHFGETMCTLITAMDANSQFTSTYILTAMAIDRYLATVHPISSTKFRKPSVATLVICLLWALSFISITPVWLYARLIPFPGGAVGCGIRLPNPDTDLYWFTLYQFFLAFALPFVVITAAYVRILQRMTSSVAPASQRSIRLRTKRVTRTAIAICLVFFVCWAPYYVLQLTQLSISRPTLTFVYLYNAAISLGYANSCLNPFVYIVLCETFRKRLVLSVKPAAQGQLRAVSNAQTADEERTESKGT

DAT = target: T4, DAT (Homo sapiens, UniProt Q01959); settings: cited from earlier work
T4 construct: from tissue; host or cells: striatum of healthy male volunteers, in vivo PET
T4 sequence (Q01959 whole entry): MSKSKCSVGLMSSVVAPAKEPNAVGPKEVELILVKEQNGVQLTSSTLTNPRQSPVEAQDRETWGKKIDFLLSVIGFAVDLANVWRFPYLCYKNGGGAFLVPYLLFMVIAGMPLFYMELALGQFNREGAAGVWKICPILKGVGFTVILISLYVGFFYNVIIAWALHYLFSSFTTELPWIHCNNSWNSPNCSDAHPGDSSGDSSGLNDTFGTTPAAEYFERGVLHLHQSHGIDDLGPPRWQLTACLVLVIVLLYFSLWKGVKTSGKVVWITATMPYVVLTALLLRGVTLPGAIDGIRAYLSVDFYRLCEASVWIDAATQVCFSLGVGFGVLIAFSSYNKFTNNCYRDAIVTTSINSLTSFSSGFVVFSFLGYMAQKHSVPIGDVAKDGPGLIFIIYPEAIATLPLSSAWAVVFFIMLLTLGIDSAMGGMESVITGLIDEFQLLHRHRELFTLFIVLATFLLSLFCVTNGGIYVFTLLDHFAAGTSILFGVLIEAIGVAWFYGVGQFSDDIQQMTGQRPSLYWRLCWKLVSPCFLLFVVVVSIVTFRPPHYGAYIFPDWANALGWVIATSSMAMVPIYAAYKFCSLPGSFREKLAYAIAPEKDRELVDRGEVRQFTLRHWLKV

NET = NET (Homo sapiens, UniProt P23975); settings: at efficacious doses; cited from earlier work
Chain of NET (P23975 whole entry): as the sequence (P23975 whole entry) above

[4] = target: T2, Transporter, Norepinephrine (NET); settings: radioligand, Historical Values; cited from earlier work
[5] = target: T1, Transporter, Dopamine (DAT); settings: radioligand, Historical Values; cited from earlier work
PWS patients = settings: standard mg/day dosing, cited from earlier work
MCHR1 [6] = target: T3, MCHR1; set-up: host or cells: CHO-K1 cells; settings: radioligand, Historical Values; cited from earlier work
Target sequence in this assay (Q99705 whole entry): as the sequence (Q99705 whole entry, species assumed) above

T1 sequence (Q01959 whole entry): as the sequence (Q01959 whole entry) above

[2H]C1([2H])NC([2H])([2H])C([2H])(c2ccc(Cl)c(Cl)c2)c2ccc(-c3ccc4ncnn4c3)cc21 (single isomer, unassigned) [Compound 8A, 7-([1,2,4]triazolo[1,5-a]pyridin-6-yl)-4-(3,4-dichlorophenyl)-1,2,3,4-tetrahydroisoquinoline-1,1,3,3,4-d5]
DAT, %inhibition 10 nM [1]: 44%

[2H]C1([2H])NC([2H])([2H])C([2H])(c2ccc(Cl)c(Cl)c2)c2ccc(-c3ccc4ncnn4c3)cc21 (single isomer, unassigned) [Compound 8B, 7-([1,2,4]triazolo[1,5-a]pyridin-6-yl)-4-(3,4-dichlorophenyl)-1,2,3,4-tetrahydroisoquinoline-1,1,3,3,4-d5]
DAT, %inhibition 10 nM [1]: 4% | DAT, %inhibition 100 nM [1]: 75% | NET, %inhibition 10 nM ([2]; 10 nM compound): 37% | NET, %inhibition 100 nM ([2]; 100 nM compound): 71%

[2H]C1([2H])NCC(c2ccc(Cl)c(Cl)c2)c2ccc(-c3ccc4ncnn4c3)cc21 (single isomer, unassigned) [Compound 12A, 7-([1,2,4]triazolo[1,5-a]pyridin-6-yl)-4-(3,4-dichlorophenyl)-1,2,3,4-tetrahydroisoquinoline-1,1-d2]
DAT, %inhibition 10 nM [1]: 53% | inhibition at 0.1 µM [1]: 92%

[2H]C1([2H])NCC(c2ccc(Cl)c(Cl)c2)c2ccc(-c3ccc4ncnn4c3)cc21 (single isomer, unassigned) [Compound 12B, 7-([1,2,4]triazolo[1,5-a]pyridin-6-yl)-4-(3,4-dichlorophenyl)-1,2,3,4-tetrahydroisoquinoline-1,1-d2]
DAT, %inhibition 10 nM [1]: 0% | DAT, %inhibition 100 nM [1]: 74% | NET, %inhibition 10 nM ([2]; 10 nM compound): 44% | NET, %inhibition 100 nM ([2]; 100 nM compound): 74%

[2H]C1([2H])NCc2cc(-c3ccc4ncnn4c3)ccc2C1([2H])c1ccc(Cl)c(Cl)c1 (single isomer, unassigned) [Compound 16A, 7-([1,2,4]triazolo[1,5-a]pyridin-6-yl)-4-(3,4-dichlorophenyl)-1,2,3,4-tetrahydroisoquinoline-3,3,4-d3]
DAT, %inhibition 10 nM [1]: 47% | inhibition at 0.1 µM [1]: 91% | inhibition at 0.01 µM ([2]; 10 nM compound): 38% | inhibition at 0.1 µM ([2]; 100 nM compound): 83%

[2H]C1([2H])NCc2cc(-c3ccc4ncnn4c3)ccc2C1([2H])c1ccc(Cl)c(Cl)c1 (single isomer, unassigned) [Compound 16B, 7-([1,2,4]triazolo[1,5-a]pyridin-6-yl)-4-(3,4-dichlorophenyl)-1,2,3,4-tetrahydroisoquinoline-3,3,4-d3]
DAT, %inhibition 10 nM [1]: -2%

CC(=O)N1CCc2c(c3ccc(-n4ccc(OCc5ccc(F)cn5)cc4=O)cc3n2C)C1 [1-(2-acetyl-5-methyl-2,3,4,5-tetrahydro-1H-pyrido[4,3-b]indol-7-yl)-4-((5-fluoropyridin-2-yl)methoxy)pyridin-2(1H)-one]
contribution to MCHR1 antagonism (MCHR1 [3]): does not contribute to the pharmacology of MCHR1 antagonism

CC(NC(C)(C)C)C(=O)c1cccc(Cl)c1 (centres unmarked) [Bupropion]
Lowest Occupancy DAT (DAT; at efficacious doses): 14% (Bupropion) | DAT occupancy (DAT; at various approved doses): 14-26%

COC(=O)C(c1ccccc1)C1CCCCN1 (centres unmarked) [Methylphenidate]
Highest Occupancy DAT (DAT; at efficacious doses): 74% (Methylphenidate) | DAT occupancy (DAT; at various approved doses): 40-74%

COc1ccc(C(CN(C)C)C2(O)CCCCC2)cc1 (centres unmarked) [Venlafaxine]
Highest Occupancy NET (NET): 61% (Venlafaxine) | Lowest Occupancy NET (NET): 8% (Venlafaxine) | NET occupancies (NET): 8-61%

COC(=O)[C@H]1[C@@H](c2ccc(I)cc2)C[C@@H]2CC[C@H]1N2C [[^125I] RTI-55]
Kd [4]: 24000 pM | Kd [5]: 580 pM

NC(=O)C[S+]([O-])C(c1ccccc1)c1ccccc1 (centres unmarked) [modafinil]
DAT occupancy (DAT; at various approved doses): 51-57%

CCOC[C@@H]1[C@@H](c2ccc(Cl)c(Cl)c2)C[C@@H]2CC[C@H]1N2C [tesofensine]
DAT occupancy (DAT; suggested as the optimal weight loss doses): 50%-70% | hyperphagia (PWS patients; PWS patients with the appropriate plasma drug level): controlled completely | patients with plasma drug levels exceeding the safety levels who discontinued due to adverse events (PWS patients; PWS patients): ⅔ | efficacy (PWS patients; lowering the dosing for all patients): no efficacy

[^125I] Tyr-S36057
Kd (MCHR1 [6]): 100 pM

Source: patent US20230084144A1, “THERAPEUTIC COMBINATIONS OF DRUGS AND METHODS OF USING THEM” (ConSynance Therapeutics, Inc., priority 2020, published 2023)
